The values that follow come from ChEMBL document CHEMBL3217425, “Structure-based design, synthesis, and profiling of a -tryptase inhibitor with a spiro-piperidineamide scaffold, benzylamine P1 group, and a substituted indole P4 group” (Medchemcomm, 2011).

Data set [1] has as its target T1, SSAO (amine oxidase [copper-containing] 3) (Homo sapiens, UniProt Q16853).
T1 sequence (Q16853 whole entry): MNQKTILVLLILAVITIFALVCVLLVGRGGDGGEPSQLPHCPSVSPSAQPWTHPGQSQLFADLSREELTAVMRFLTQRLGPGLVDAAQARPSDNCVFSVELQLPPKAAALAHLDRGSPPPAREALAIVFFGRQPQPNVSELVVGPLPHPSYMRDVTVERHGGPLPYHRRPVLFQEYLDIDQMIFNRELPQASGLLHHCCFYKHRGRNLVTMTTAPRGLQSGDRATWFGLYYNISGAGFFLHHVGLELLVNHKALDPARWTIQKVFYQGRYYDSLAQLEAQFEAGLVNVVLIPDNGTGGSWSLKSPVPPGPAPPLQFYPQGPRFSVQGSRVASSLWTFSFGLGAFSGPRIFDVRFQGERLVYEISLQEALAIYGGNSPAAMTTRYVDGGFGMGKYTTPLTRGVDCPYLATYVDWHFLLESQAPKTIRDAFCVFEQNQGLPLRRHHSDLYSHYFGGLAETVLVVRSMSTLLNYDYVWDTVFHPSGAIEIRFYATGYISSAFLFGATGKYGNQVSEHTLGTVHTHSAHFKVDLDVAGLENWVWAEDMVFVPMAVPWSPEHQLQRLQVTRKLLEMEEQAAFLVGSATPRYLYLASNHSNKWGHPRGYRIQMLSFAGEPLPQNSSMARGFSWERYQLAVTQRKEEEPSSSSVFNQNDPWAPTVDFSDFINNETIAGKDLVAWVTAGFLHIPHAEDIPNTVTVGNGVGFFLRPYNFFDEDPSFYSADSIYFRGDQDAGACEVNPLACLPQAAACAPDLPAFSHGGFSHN
Nature of the data set: Stability of the compound assessed as human full length SSAO-mediated drug metabolism expressed in CHO cells measured as compound remaining after 20 mins. Particulars: CHO cells expressing human full length SSAO, read-out: Stability. Format: ADME, cell-based.

The nature of data set [2]: Drug metabolism in human liver microsomes after 20 mins. The note with it: read-out: Drug metabolism. It counts as ADME. For orientation: Liver microsomes are a subcellular fraction often used to study metabolism.
Data set [3] can be described thus: Drug metabolism in guinea pig liver microsomes after 20 mins. Format: ADME, Cavia porcellus. The note with it: read-out: Drug metabolism.
Data set [4] in a line: Drug metabolism in rat liver microsomes after 20 mins. Format: ADME. Particulars: read-out: Drug metabolism.
The target in data set [5] is T2, hERG (KCNH2) (Homo sapiens, UniProt Q12809). In words: Inhibition of human ERG channel expressed in CHO cells at 1 uM. Format: cell-based. The note with it: CHO cells expressing human ERG channel.
In data set [6] the target is T2, hERG (KCNH2). In words: Inhibition of human ERG channel expressed in CHO cells at 10 uM. Format: cell-based. The note with it: CHO cells expressing human ERG channel.

T2 sequence (Q12809 whole entry): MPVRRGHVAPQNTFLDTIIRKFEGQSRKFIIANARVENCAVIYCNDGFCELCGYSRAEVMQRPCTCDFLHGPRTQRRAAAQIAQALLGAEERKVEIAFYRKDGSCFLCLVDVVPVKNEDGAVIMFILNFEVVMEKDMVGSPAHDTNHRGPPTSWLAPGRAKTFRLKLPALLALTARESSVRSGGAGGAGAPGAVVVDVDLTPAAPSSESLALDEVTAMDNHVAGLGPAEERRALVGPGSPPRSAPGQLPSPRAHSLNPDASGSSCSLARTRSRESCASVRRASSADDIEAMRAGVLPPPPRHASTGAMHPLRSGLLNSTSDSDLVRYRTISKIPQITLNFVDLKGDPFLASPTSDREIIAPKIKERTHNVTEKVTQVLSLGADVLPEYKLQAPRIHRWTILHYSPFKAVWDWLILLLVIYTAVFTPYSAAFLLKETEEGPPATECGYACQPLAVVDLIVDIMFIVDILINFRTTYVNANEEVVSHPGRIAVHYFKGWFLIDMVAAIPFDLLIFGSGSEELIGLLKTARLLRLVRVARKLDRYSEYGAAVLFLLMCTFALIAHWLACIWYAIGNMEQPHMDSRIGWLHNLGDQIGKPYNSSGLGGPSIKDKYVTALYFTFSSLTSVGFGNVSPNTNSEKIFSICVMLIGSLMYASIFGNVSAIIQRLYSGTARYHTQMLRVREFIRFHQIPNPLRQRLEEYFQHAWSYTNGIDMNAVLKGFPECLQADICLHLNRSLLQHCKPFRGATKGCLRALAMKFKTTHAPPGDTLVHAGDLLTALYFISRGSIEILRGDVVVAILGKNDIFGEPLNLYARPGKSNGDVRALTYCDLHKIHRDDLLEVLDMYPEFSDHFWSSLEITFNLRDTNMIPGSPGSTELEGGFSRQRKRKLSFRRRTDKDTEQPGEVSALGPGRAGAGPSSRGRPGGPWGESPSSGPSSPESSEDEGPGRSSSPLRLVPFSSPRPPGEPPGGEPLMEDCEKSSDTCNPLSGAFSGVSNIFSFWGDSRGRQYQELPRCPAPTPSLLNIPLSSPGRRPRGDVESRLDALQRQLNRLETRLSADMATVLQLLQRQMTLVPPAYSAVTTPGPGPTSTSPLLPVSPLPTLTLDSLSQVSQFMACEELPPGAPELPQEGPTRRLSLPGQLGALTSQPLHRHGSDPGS

As to `COCCn1cc(C(=O)N2CCC(c3cc(CN)ccc3F)CC2)c2cccc(F)c21`, in data set [1], the remaining at 20 min was 78%. The metabolised at 20 min in data set [2] was 71%; in data set [3], 38%; in data set [4] it was 21%.
On to `COCCn1cc(C(=O)N2CCC3(CC2)COc2ccc(CN)cc23)c2cccc(F)c21`, for which the remaining at 20 min in data set [1] worked out at 89%. Also, the metabolised at 20 min in data set [2] stood at 17%; in data set [3], 12%; in data set [4] it was 10%. Further, in data set [5], the inhibition at 1 µM was found to be 11%. In addition, the inhibition at 10 µM in data set [6] was found to be 16%.
Regarding `NCc1cccc(C2CCN(C(=O)c3ccc(C#Cc4ccccc4F)o3)CC2)c1`, the remaining at 20 min in data set [1] turned out to be 8%.

What is called inhibition is the share of the control response that was lost under treatment.
